Measured values: ChEMBL document CHEMBL2034913, “A variant peptide of buffalo colostrum β-lactoglobulin inhibits angiotensin I-converting enzyme activity” (Eur J Med Chem, 2012)
Peptide text beside a SMILES is read from it.

Assays:
[1] = target: T1, Angiotensin-converting enzyme (Rattus norvegicus) (UniProt P47820); assay: (§1) Inhibition of ACE from rat kidney using hippuryl-histidyl-leucine as substrate after 30 mins by UV/VIS spectrophotometry
T1 sequence (whole entry): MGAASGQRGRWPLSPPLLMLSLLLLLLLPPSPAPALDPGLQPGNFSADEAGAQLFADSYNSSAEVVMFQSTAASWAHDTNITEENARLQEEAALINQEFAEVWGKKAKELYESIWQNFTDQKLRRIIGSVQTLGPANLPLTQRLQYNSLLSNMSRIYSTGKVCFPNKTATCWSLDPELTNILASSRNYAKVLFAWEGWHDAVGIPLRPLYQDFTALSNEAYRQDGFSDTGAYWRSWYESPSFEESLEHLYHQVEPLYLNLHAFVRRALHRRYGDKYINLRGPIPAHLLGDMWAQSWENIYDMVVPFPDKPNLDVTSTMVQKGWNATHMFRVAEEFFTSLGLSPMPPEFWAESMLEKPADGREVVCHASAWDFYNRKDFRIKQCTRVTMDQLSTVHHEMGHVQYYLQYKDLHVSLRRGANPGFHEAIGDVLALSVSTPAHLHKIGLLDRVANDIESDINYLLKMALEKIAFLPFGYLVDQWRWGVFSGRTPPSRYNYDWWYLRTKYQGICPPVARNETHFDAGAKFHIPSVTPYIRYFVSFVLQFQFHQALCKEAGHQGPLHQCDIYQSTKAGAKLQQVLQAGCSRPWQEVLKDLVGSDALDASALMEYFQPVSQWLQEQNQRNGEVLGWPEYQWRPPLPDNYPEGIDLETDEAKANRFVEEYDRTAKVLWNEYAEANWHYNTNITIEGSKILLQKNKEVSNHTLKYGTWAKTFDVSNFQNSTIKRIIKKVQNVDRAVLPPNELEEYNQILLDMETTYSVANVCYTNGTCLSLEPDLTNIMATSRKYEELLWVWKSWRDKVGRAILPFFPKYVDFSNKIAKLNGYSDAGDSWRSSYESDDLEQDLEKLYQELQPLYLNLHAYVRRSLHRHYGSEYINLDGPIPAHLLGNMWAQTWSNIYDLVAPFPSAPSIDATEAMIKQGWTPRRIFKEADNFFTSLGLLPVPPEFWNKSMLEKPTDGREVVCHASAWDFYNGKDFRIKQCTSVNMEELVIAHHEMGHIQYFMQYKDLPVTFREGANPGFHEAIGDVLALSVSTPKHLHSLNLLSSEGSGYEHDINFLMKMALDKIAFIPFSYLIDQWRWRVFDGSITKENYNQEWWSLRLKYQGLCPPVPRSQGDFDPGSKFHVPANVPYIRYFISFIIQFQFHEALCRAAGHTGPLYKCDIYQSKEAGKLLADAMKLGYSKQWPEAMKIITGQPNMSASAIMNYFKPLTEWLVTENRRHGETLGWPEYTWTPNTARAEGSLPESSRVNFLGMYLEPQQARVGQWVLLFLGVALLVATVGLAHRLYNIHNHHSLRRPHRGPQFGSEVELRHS

[2] = target: T2, Angiotensin-converting enzyme (Rattus norvegicus, UniProt P47820); assay: as §1
T2 sequence (P47820 whole entry): T1 sequence (whole entry)

inhibition [1]: Dose-dependent effect | IC50 [2]: 498 µM
Structure (SMILES): CC[C@H](C)[C@H](N)C(=O)N[C@H](C(=O)N[C@@H](C)C(=O)N[C@@H](CCSC)C(=O)N[C@@H](CCCCN)C(=O)O)[C@@H](C)CC (H-IIAMK-OH)
